Laboratory results from PubChem BioAssay (NCI).
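Each compound was tested at five concentrations against cells in 96-well plates for 48 hours. TGI marks complete inhibition of growth.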

Columns and labels:
Test in all cases: NCI tumour cell line growth inhibition, 48 h
HCT-15 colon = system: HCT-15 colon
HL-60(TB) leukemia = system: HL-60(TB) leukemia
SN12C renal = system: SN12C renal
RXF 393 renal = system: RXF 393 renal
SF-539 CNS = system: SF-539 CNS
NCI-H522 lung = system: NCI-H522 lung
HT29 colon = system: HT29 colon
SNB-78 CNS = system: SNB-78 CNS
OVCAR-5 ovarian = system: OVCAR-5 ovarian
DMS 273 small cell lung = system: DMS 273 small cell lung
SF-295 CNS = system: SF-295 CNS
SK-MEL-28 melanoma = system: SK-MEL-28 melanoma
UACC-257 melanoma = system: UACC-257 melanoma
HCT-116 colon = system: HCT-116 colon
786-0 renal = system: 786-0 renal
IGROV1 ovarian = system: IGROV1 ovarian
COLO 205 colon = system: COLO 205 colon
A498 renal = system: A498 renal
A549 NSCLC = system: A549 NSCLC
ACHN renal = system: ACHN renal
M14 melanoma = system: M14 melanoma
HOP-92 NSCLC = system: HOP-92 NSCLC
CCRF-CEM leukemia = system: CCRF-CEM leukemia
SF-268 CNS = system: SF-268 CNS
M19-MEL melanoma = system: M19-MEL melanoma
KM12 colon = system: KM12 colon
LXFL 529 NSCLC = system: LXFL 529 NSCLC
SNB-75 CNS = system: SNB-75 CNS
SNB-19 CNS = system: SNB-19 CNS
SK-OV-3 ovarian = system: SK-OV-3 ovarian
UACC-62 melanoma = system: UACC-62 melanoma
U251 CNS = system: U251 CNS
OVCAR-8 ovarian = system: OVCAR-8 ovarian
TK-10 renal = system: TK-10 renal
OVCAR-4 ovarian = system: OVCAR-4 ovarian
LOX IMVI melanoma = system: LOX IMVI melanoma
MALME-3M melanoma = system: MALME-3M melanoma
OVCAR-3 ovarian = system: OVCAR-3 ovarian
MOLT-4 leukemia = system: MOLT-4 leukemia
RPMI-8226 leukemia = system: RPMI-8226 leukemia
KM20L2 colon = system: KM20L2 colon
DMS 114 small cell lung = system: DMS 114 small cell lung
RXF-631 renal = system: RXF-631 renal
K-562 leukemia = system: K-562 leukemia
SK-MEL-2 melanoma = system: SK-MEL-2 melanoma
UO-31 renal = system: UO-31 renal
HOP-18 NSCLC = system: HOP-18 NSCLC
SW-620 colon = system: SW-620 colon

O/N=C1/C(=C/c2ccc(Br)cc2)CCCC1C(NO)c1ccc(Br)cc1 (stereo not drawn)
TGI (HCT-15 colon): 31.8 µM
TGI (HL-60(TB) leukemia): > 100 µM
TGI (SN12C renal): 24.9 µM
TGI (RXF 393 renal): 31.1 µM
TGI (SF-539 CNS): 44.8 µM
TGI (NCI-H522 lung): 32.9 µM
TGI (HT29 colon): 35.4 µM
TGI (SNB-78 CNS): 32.6 µM
TGI (OVCAR-5 ovarian): 24.6 µM
TGI (DMS 273 small cell lung): 25.8 µM
TGI (SF-295 CNS): 30.4 µM
TGI (SK-MEL-28 melanoma): 34.4 µM
TGI (UACC-257 melanoma): 33.3 µM
TGI (HCT-116 colon): 31.3 µM
TGI (786-0 renal): 32.9 µM
TGI (IGROV1 ovarian): 32.4 µM
TGI (COLO 205 colon): 28.7 µM
TGI (A498 renal): 23 µM
TGI (A549 NSCLC): 32.1 µM
TGI (ACHN renal): 31.2 µM
TGI (M14 melanoma): 29.9 µM
TGI (HOP-92 NSCLC): 26.5 µM
TGI (CCRF-CEM leukemia): 51.2 µM
TGI (SF-268 CNS): 34.1 µM
TGI (M19-MEL melanoma): 32.1 µM
TGI (KM12 colon): 38.3 µM
TGI (LXFL 529 NSCLC): 27.9 µM
TGI (SNB-75 CNS): 36.4 µM
TGI (SNB-19 CNS): 32 µM
TGI (SK-OV-3 ovarian): 44.8 µM
TGI (UACC-62 melanoma): 27.8 µM
TGI (U251 CNS): 45.3 µM
TGI (OVCAR-8 ovarian): 31.5 µM
TGI (TK-10 renal): 33 µM
TGI (OVCAR-4 ovarian): 23.3 µM
TGI (LOX IMVI melanoma): 35.5 µM
TGI (MALME-3M melanoma): 31.9 µM
TGI (OVCAR-3 ovarian): 31.1 µM
TGI (MOLT-4 leukemia): 31.7 µM
TGI (RPMI-8226 leukemia): 48.4 µM
TGI (KM20L2 colon): 32.5 µM
TGI (DMS 114 small cell lung): 29.6 µM
TGI (RXF-631 renal): 30.8 µM
TGI (K-562 leukemia): > 100 µM
TGI (SK-MEL-2 melanoma): 34 µM
TGI (UO-31 renal): 31.3 µM
TGI (HOP-18 NSCLC): 33.8 µM
TGI (SW-620 colon): 38.6 µM
